From patent publication US11679114B2, “Progestogen-only oral contraception” (Navad Life Sciences Pte, priority 2021, dated 2023)
Where two headings read alike, the source gives them in different places.

Tests used:
healthy, cyclic women = test: Diameter of the largest follicle-like structure (FLS) by transvaginal ultrasonography; type: in vivo, human
Method: The tablets prepared in Example 1 were tested in a single-center, open-label, adaptive design study to evaluate the influence on hormonal and ovarian function and vaginal bleeding pattern of different higher dosages of LNG administered once daily for 28 days over two consecutive treatment cycles in healthy, cyclic women.
Subjects started study medication intake on the first day of menstrual bleeding after the pre-treatment cycle. One tablet was taken orally, around the same time every morning, during 56 consecutive days. Study visits were planned every three (±1) days from treatment day 3 (±1) until 27 (±1) and from day 31 (±1) until day 55 (±1). At each visit the diameter of the largest follicle-like structure (FLS) and serum follicle-stimulating hormone (FSH), luteinizing hormone (LH), estradiol (E2) and P concentrations were measured.
If ovulation was observed during treatment, the subsequent luteal phase was evaluated using the Landgren criterion, i.e. the luteal phase was considered adequate when P concentrations were >16 nmol/L during at least 5 days (Landgren et al., “Hormonal effects of the 300 μg norethisterone (NET) minipill. 1. Daily steroid levels in 43 subjects during a pretreatment cycle and during the second month of NET administration,” Contraception 1980; 21: pp. 87-113). TVUS measurements of the diameter of the largest FLS (mean of two directions) were performed using a Voluson E8 Expert device (GE Medical Systems). Serum FSH, LH, E2, P and SHBG concentrations were determined by validated chemiluminescent microparticle immunoassays (Abbott, Longford, Ireland). All pharmacodynamic parameters were evaluated descriptively.

[1] = Multiple-dose pharmacokinetics, plasma LNG concentrations on treatment day 55 (±1); type: in vivo, human; settings: for AUC0-24, ss, Max / AUC0-24, ss, Min / Cmax, ss, Max / Cmax, ss, Min / AUC(0-t): entire treatment group; for AUC(0-t): female, human, plasma, po, 0.095 mg per day
Method: Serum SHBG concentrations were determined after ovulation in the pre-treatment cycle, on treatment day 55 (±1) and at the end-of-study examination. Multiple-dose PK parameters were investigated in approximately 15 subjects per dose group, 5 of them having a BMI≥30 kg/m^2. Blood samples for LNG determination were taken on treatment day 55 (±1) pre-dose and 0.5, 1, 2, 3, 4, 6 and 24 hours after dosing.
Plasma LNG concentrations were determined by a validated liquid chromatography hyphenated with tandem mass spectrometry method (ACC, Leidersbach, Germany). PK parameters were derived by means of non-compartmental analysis. Analysis of Variance (ANOVA) was used as basis for the calculation of 90% confidence intervals; point estimates and confidence intervals for area under the curve (AUC) and maximum concentration (Cmax) values and comparison of treatments which were calculated by parametric analysis. Descriptive statistics for each treatment group and for subgroups with BMI<30 and ≥30 kg/m^2 were calculated.

[2] = LNG 0.095 mg per day, entire treatment period
[3] = LNG 0.095 mg per day, treatment period 1
[4] = LNG 0.095 mg per day, treatment period 2
[5] = LNG 0.115 mg per day, entire treatment period
[6] = LNG 0.115 mg per day, treatment period 1
[7] = LNG 0.115 mg per day, treatment period 2
[8] = LNG 0.135 mg per day, entire treatment period
[9] = LNG 0.135 mg per day, treatment period 1
[10] = LNG 0.135 mg per day, treatment period 2
[11] = 0.095 mg per day oral over 55 ± 1 consecutive days
[12] = 0.115 mg per day oral over 55 ± 1 consecutive days
[13] = 0.135 mg per day oral over 55 ± 1 consecutive days

## C#C[C@]1(O)CC[C@H]2[C@@H]3CCC4=CC(=O)CC[C@@H]4[C@H]3CC[C@@]21CC (racemic) [LNG, levonorgestrel]
healthy, cyclic women; LNG 0.095 mg per day, BMI < 30 kg/m^2, entire treatment period
  Maximum FLS diameter, Mean ± SD: 22.5 ± 8.2 mm
healthy, cyclic women; LNG 0.095 mg per day, BMI ≥ 30 kg/m^2, entire treatment period
  Maximum FLS diameter, Mean ± SD: 20.6 ± 6.9 mm
healthy, cyclic women; [2]
  Maximum FLS diameter, Mean ± SD: 22.1 ± 7.9 mm
  Maximum FLS diameter, Median: 22.5 mm
healthy, cyclic women; [3]
  Maximum FLS diameter, Mean ± SD: 20.0 ± 8.6 mm
  Maximum FLS diameter, Median: 20.6 mm
healthy, cyclic women; [4]
  Maximum FLS diameter, Mean ± SD: 20.5 ± 7.5 mm
  Maximum FLS diameter, Median: 20.2 mm
healthy, cyclic women; LNG 0.115 mg per day, BMI < 30 kg/m^2, entire treatment period
  Maximum FLS diameter, Mean ± SD: 19.8 ± 7.5 mm
healthy, cyclic women; LNG 0.115 mg per day, BMI ≥ 30 kg/m^2, entire treatment period
  Maximum FLS diameter, Mean ± SD: 27.9 ± 4.4 mm
healthy, cyclic women; [5]
  Maximum FLS diameter, Mean ± SD: 21.4 ± 7.7 mm
  Maximum FLS diameter, Median: 20.8 mm
healthy, cyclic women; [6]
  Maximum FLS diameter, Mean ± SD: 20.4 ± 7.9 mm
  Maximum FLS diameter, Median: 20.3 mm
healthy, cyclic women; [7]
  Maximum FLS diameter, Mean ± SD: 19.9 ± 7.5 mm
  Maximum FLS diameter, Median: 20.8 mm
healthy, cyclic women; LNG 0.135 mg per day, BMI < 30 kg/m^2, entire treatment period
  Maximum FLS diameter, Mean ± SD: 18.4 ± 5.0 mm
healthy, cyclic women; LNG 0.135 mg per day, BMI ≥ 30 kg/m^2, entire treatment period
  Maximum FLS diameter, Mean ± SD: 19.0 ± 7.1 mm
healthy, cyclic women; [8]
  Maximum FLS diameter, Mean ± SD: 18.5 ± 5.3 mm
  Maximum FLS diameter, Median: 18.1 mm
healthy, cyclic women; LNG 0.135 mg per day, one subject (BMI 20.4 kg/m^2), treatment day 3
  FLS diameter in one subject with possible abnormal ovulation: 12.3 mm
healthy, cyclic women; [9]
  Maximum FLS diameter, Mean ± SD: 16.6 ± 5.7 mm
  Maximum FLS diameter, Median: 13.9 mm
healthy, cyclic women; [10]
  Maximum FLS diameter, Mean ± SD: 17.4 ± 5.0 mm
  Maximum FLS diameter, Median: 16.8 mm
[1]; [11]
  AUC0-24, ss, Max: 23.2 ng·h/mL
  AUC0-24, ss, Min: 7.29 ng·h/mL
  Cmax, ss, Max: 3.12 ng/mL
  Cmax, ss, Min: 0.903 ng/mL
[1]; [12]
  AUC0-24, ss, Max: 26.1 ng·h/mL
  AUC0-24, ss, Min: 5.58 ng·h/mL
  Cmax, ss, Max: 2.83 ng/mL
  Cmax, ss, Min: 0.73 ng/mL
[1]; [13]
  AUC0-24, ss, Max: 30 ng·h/mL
  AUC0-24, ss, Min: 10.2 ng·h/mL
  Cmax, ss, Max: 3.23 ng/mL
  Cmax, ss, Min: 1.14 ng/mL
[1]; 0.095, 0.115 and 0.135 mg per day, day 55±1
  Dose proportionality of total exposure over the dosing interval: dose proportionality
[1]; 0.095 mg per day oral over 55 ± 1 consecutive days, read-out: AUC0-24, ss, Geometric Mean
  AUC(0-t): 12.4 ng·h/mL
[1]; 0.095 mg per day oral over 55 ± 1 consecutive days, read-out: AUC0-24, ss, Mean
  AUC(0-t): 13.1 ng·h/mL
[1]; 0.095 mg per day oral over 55 ± 1 consecutive days, read-out: AUC0-24, ss, Median
  AUC(0-t): 11.8 ng·h/mL
